target: T1, Akt3 (Homo sapiens, UniProt Q9Y243); assay: Akt3 inhibition activity of selected compounds; type: cell-based; details: Table 1
T1 construct: endogenous in cells; host or cells: primary human CD4+/CD45RA+/CD25- naive T cells
Procedure: (§1) Human CD4+/CD45RA+/CD25-naïve T cells were plated under induction conditions (IL-2/anti-CD3/anti-CD28+TGFβ) in the absence or presence of compounds for 72 hours. To determine the compounds' specificity for each phospho-AKT isoform, phospho-AKT cellular HTRF kits (Cisbio catalogue numbers 63ADK078PEG (pAKT1), 63ADK080PEG (p-AKT2), and 63ADK082PEG (pAKT3)) were used according to manufacturer specifications. Briefly, after removal of the supernatant, cells were lysed, and total protein concentration measured and normalized for all samples. The cell lysates were transferred into 384-well plates and Eu Cryptate antibody+d2 antibody mixture was added. This process was the same for each isoform but utilized the corresponding isoform antibodies from each respective kit. Positive and negative controls (supplied with the kit) were incorporated into each experiment. The plates were incubated overnight. Data acquisition was performed on the Varioskan Lux reader utilizing the settings for the TRF fluorescence protocol. Data was presented as percent change over DMSO-treated controls. Each test condition was run in duplicate, and the assay was performed at least twice.

T1 sequence (Q9Y243 whole entry): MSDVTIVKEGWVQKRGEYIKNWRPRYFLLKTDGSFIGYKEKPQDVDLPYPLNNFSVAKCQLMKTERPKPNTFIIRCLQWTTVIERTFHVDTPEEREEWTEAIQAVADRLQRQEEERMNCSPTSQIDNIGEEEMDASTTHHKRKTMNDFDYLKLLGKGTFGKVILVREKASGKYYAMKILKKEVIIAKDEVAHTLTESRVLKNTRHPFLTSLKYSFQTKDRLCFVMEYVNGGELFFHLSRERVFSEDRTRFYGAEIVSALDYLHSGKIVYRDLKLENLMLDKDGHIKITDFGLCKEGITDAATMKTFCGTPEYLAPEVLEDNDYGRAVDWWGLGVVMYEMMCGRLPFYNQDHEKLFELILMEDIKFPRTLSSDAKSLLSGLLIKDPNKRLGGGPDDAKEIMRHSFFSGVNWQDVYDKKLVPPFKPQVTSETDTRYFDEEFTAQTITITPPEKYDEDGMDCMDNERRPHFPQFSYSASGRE

SMILES	IC50 [nM]
O=C(Nc1cccc(Oc2ccncc2)c1)c1cccc(Nc2ccnc3ccc(F)cc23)c1 [Compound 10, 3-((6-fluoroquinolin-4-yl)amino)-N-(3-(pyridin-4-yloxy)phenyl)benzamide]	< 500
O=C(c1cccc(Nc2ccnc3ccc(F)cc23)c1)N1CCc2c(Nc3ccncc3)cccc21 [Compound 67, (3-((6-fluoroquinolin-4-yl)amino)phenyl)(4-(pyridin-4-ylamino)indolin-1-yl)methanone]	< 2000
O=C(Nc1cccc(Nc2ccccc2)c1)c1cccc(Nc2ccncc2)c1 [Compound 97, N-(3-(phenylamino)phenyl)-3-(pyridin-4-ylamino)benzamide]	< 5000
Cc1cc(Nc2cccc(C(=O)Nc3cccc(Nc4ccccc4)c3)c2)ccn1 [Compound 99, 3-((2-methylpyridin-4-yl)amino)-N-(3-(phenylamino)phenyl)benzamide]	< 2000
Cc1cc(Nc2cccc(C(=O)Nc3cccc(Nc4ccccc4)c3)c2)ccn1 [Compound 109, 3-((2-methylpyridin-4-yl)amino)-N-(3-(phenylamino)phenyl)benzamide]	< 1000
O=C1c2ccc(Nc3ccncc3)cc2CN1c1cccc(Nc2ccncc2)c1 [Compound 110, 5-(pyridin-4-ylamino)-2-(3-(pyridin-4-ylamino)phenyl)isoindolin-1-one]	< 500
N#Cc1nccc(Nc2cccc(NC(=O)c3cccc(Nc4ccnc5ccc(F)cc45)c3)c2)c1C(F)(F)F [Compound 112, N-(3-(2-cyano-3-(trifluoromethyl)pyridin-4-ylamino)phenyl)-3-(6-fluoroquinolin-4-ylamino)benzamide]	< 5000
N#Cc1cc(Nc2cccc(NC(=O)c3cccc(Nc4ccnc5ccc(F)cc45)c3)c2)ccn1 [Compound 113, N-(3-(2-cyanopyridin-4-ylamino)phenyl)-3-(6-fluoroquinolin-4-ylamino)benzamide]	< 1000
Cc1cc(Nc2ccc3c(c2)CN(c2cccc(Nc4ccncc4)c2)C3=O)ccn1 [Compound 114, 5-(2-methylpyridin-4-ylamino)-2-(3-(pyridin-4-ylamino)phenyl)isoindolin-1-one]	< 1000
Cc1cc(Nc2ccc3c(c2)CN(c2cccc(Nc4cccc(F)c4)c2)C3=O)ccn1 [Compound 118, 2-(3-(3-fluorophenylamino)phenyl)-5-(2-methylpyridin-4-ylamino)isoindolin-1-one]	< 500
Cc1nccc(Nc2ccc3c(c2)CN(c2cccc(Nc4ccncc4)c2)C3=O)c1Cl [Compound 119, 5-(3-chloro-2-methylpyridin-4-ylamino)-2-(3-(pyridin-4-ylamino)phenyl)isoindolin-1-one]	< 2000
Cc1cc(Nc2ccc3c(c2)CN(c2cccc(Nc4ccc(F)cc4)c2)C3=O)ccn1 [Compound 120, 2-(3-(4-fluorophenylamino)phenyl)-5-(2-methylpyridin-4-ylamino)isoindolin-1-one]	< 100
Cc1c(Nc2cccc(C(=O)Nc3cccc(Nc4ccccc4)c3)c2)ccnc1N [Compound 129, 3-(2-amino-3-methylpyridin-4-ylamino)-N-(3-(phenylamino)phenyl)benzamide]	< 5000
Nc1cc(Nc2cccc(C(=O)Nc3cccc(Nc4ccccc4)c3)c2)ccn1 [Compound 130, 3-(2-aminopyridin-4-ylamino)-N-(3-(phenylamino)phenyl)benzamide]	< 1000
Cc1cc(Nc2cccc(C(=O)Nc3cccc(Nc4ccccc4)c3)c2)cc(N)n1 [Compound 131, 3-(2-amino-6-methylpyridin-4-ylamino)-N-(3-(phenylamino)phenyl)benzamide]	< 10000
O=C1c2ccc(Nc3ccncc3)cc2CN1c1cccc(NC2CCCC2)c1 [Compound 132, 2-(3-(cyclopentylamino)phenyl)-5-(pyridin-4-ylamino)isoindolin-1-one]	< 1000

Results, then the compound that gave them:

IC50 [nM]	SMILES
< 1000	C#Cc1ccc2nccc(Nc3cccc(C(=O)Nc4cccc(Nc5ccncc5)c4)c3)c2c1 [Compound 4, 3-((6-ethynylquinolin-4-yl)amino)-N-(3-(pyridin-4-ylamino)phenyl)benzamide]
< 1000	[N-]=[N+]=Nc1ccc2nccc(Nc3cccc(C(=O)Nc4cccc(Nc5ccncc5)c4)c3)c2c1 [Compound 5, 3-((6-azidoquinolin-4-yl)amino)-N-(3-(pyridin-4-ylamino)phenyl)benzamide]
< 2000	O=C(Nc1cccc(Nc2ccncc2)n1)c1cccc(Nc2ccnc3ccc(F)cc23)c1 [Compound 21, 3-((6-fluoroquinolin-4-yl)amino)-N-(6-(pyridin-4-ylamino)pyridin-2-yl)benzamide]
< 1000	O=C(Nc1cc(Nc2ccncc2)ccn1)c1cccc(Nc2ccnc3ccccc23)c1 [Compound 38, N-(4-(pyridin-4-ylamino)pyridin-2-yl)-3-(quinolin-4-ylamino)benzamide]
< 5000	O=C(Nc1cc(Oc2ccccc2)ccn1)c1cccc(Nc2ccncc2)c1 [Compound 107, N-(4-phenoxypyridin-2-yl)-3-(pyridin-4-ylamino)benzamide]
< 5000	O=C(Nc1cccc(Nc2ccncc2)n1)c1cccc(Nc2ccncc2)c1 [Compound 108, 3-(pyridin-4-ylamino)-N-(6-(pyridin-4-ylamino)pyridin-2-yl)benzamide]
< 5000	Cc1cc(Nc2cccc(C(=O)Nc3cc(Nc4ccncc4)ccn3)c2)cc(N)n1 [Compound 125, 3-(2-amino-6-methylpyridin-4-ylamino)-N-(4-(pyridin-4-ylamino)pyridin-2-yl)benzamide]
< 1000	O=C(Nc1cc(Nc2ccncc2)ccn1)c1cccc(Nc2cccc3ncccc23)c1 [Compound 126, N-(4-(pyridin-4-ylamino)pyridin-2-yl)-3-(quinolin-5-ylamino)benzamide]
< 5000	Cc1c(Nc2cccc(C(=O)Nc3cc(Nc4ccncc4)ccn3)c2)ccnc1N [Compound 127, 3-(2-amino-3-methylpyridin-4-ylamino)-N-(4-(pyridin-4-ylamino)pyridin-2-yl)benzamide]
< 5000	Nc1cc(Nc2cccc(C(=O)Nc3cc(Nc4ccncc4)ccn3)c2)ccn1 [Compound 128, 3-(2-aminopyridin-4-ylamino)-N-(4-(pyridin-4-ylamino)pyridin-2-yl)benzamide]

target: T1, Akt3; assay: Akt3 activation activity of selected compounds; type: cell-based; details: Table 2
Procedure: as §1

SMILES	IC50 [nM]
Cc1cc(Nc2cccc(NC(=O)c3cccc(Nc4ccnc5ccc(N(C)C)cc45)c3)c2)ccn1 [Compound 59, 3-((6-(dimethylamino)quinolin-4-yl)amino)-N-(3-((2-methylpyridin-4-yl)amino)phenyl)benzamide]	< 1000
Cc1cc(Nc2ccnc(NC(=O)c3cccc(Nc4ccnc5ccc(N(C)C)cc45)c3)c2)ccn1 [Compound 61, 3-((6-(dimethylamino)quinolin-4-yl)amino)-N-(4-((2-methylpyridin-4-yl)amino)pyridin-2-yl)benzamide]	< 1000
Cc1cc(Oc2cccc(NC(=O)c3cncc(Nc4ccnc5ccc(N(C)C)cc45)c3)c2)ccn1 [Compound 65, 5-((6-(dimethylamino)quinolin-4-yl)amino)-N-(3-((2-methylpyridin-4-yl)oxy)phenyl)nicotinamide]	< 2000
N#Cc1ccc2nccc(Nc3cccc(-c4nc5ccc(Nc6ccncc6)nc5[nH]4)c3)c2c1 [Compound 106, 4-((3-(5-(pyridin-4-ylamino)-3H-imidazo[4,5-b]pyridin-2-yl)phenyl)amino)quinoline-6-carbonitrile]	< 2000

Second part, the compound after the results:

IC50 [nM]	SMILES
< 5000	CS(=O)(=O)c1ccc2nccc(Nc3cccc(C(=O)Nc4cccc(Nc5ccncc5)c4)c3)c2c1 [Compound 3, 3-((6-(methylsulfonyl)quinolin-4-yl)amino)-N-(3-(pyridin-4-ylamino)phenyl)benzamide]
< 2000	N#Cc1ccc2nccc(Nc3cccc(C(=O)Nc4cccc(Nc5ccncc5)c4)c3)c2c1 [Compound 6, 3-((6-cyanoquinolin-4-yl)amino)-N-(3-(pyridin-4-ylamino)phenyl)benzamide]
< 5000	N#Cc1ccc2nccc(Nc3cccc(C(=O)Nc4cc(Nc5ccncc5)ccn4)c3)c2c1 [Compound 26, 3-((6-cyanoquinolin-4-yl)amino)-N-(4-(pyridin-4-ylamino)pyridin-2-yl)benzamide]
< 1000	CN(C)c1ccc2nccc(Nc3cccc(C(=O)Nc4cccc(Nc5ccncc5)c4)c3)c2c1 [Compound 31, 3-((6-(dimethylamino)quinolin-4-yl)amino)-N-(3-(pyridin-4-ylamino)phenyl)benzamide]

Reference: patent US20230219927A1, “AKT3 MODULATORS” (Georgiamune LLC, priority 2020, published 2023)
